In patent US12686673B2 (Blueprint Medicines Corporation, priority 2020, dated 2026):
Where a name gives a salt, the structure may show the parent alone. Read-outs that look alike come from different tables or passages of the source.

Key:
Assay type in all cases: cell-based
[1] = target: EGFR(D770_N771insSVD) expressing Ba/F3 stable cell line (Homo sapiens, UniProt P00533, DUP768-770, cells depend on it); assay: Cellular proliferation (Alamar Blue) assay, EGFR D770_N771insSVD Ba/F3; settings: 72 hr, read-out: D770 IC50
Experimental: (§1) • 1. EGFR(D770_N771insSVD) expressing Ba/F3 stable cell line • 2. EGFR (A767_dupASV) expressing Ba/F3 stable cell line • 3. A431 cells • 4. EGFR (H773insNPH) expressing Ba/F3 stable cell line • 5. HER2 (A775_G776insYVMA) expressing Ba/F3 stable cell line Assay Procedure: • 1. Seed cells at 5000 for A431 and 15,000 cells for Ba/F3 in 100 μL/well in complete media (for A431: DMEM with […] and for Ba/F3 cells: RPMI with 10% FBS) in 96-well tissue culture plate. Leave outer wells without cells for background measurements. Incubate at 37 degree Celsius in […] humidified incubator for 16-18 hours. • 2. Add 0.025 ml of 5× concentration compound dilution or DMSO control. Final compound concentration range is 10-0.0005 μM prepared in 3-fold serial dilutions. Incubate for 72 hr at 37 degree Celsius in […] humidified incubator. • 3. Add 0.0125 ml Alamar Blue™ reagent to each well with multi-channel pipette and tap gently on each side of the plate to mix. Incubate for 3 hours at 37 degree Celsius in 5% CO2 humidified incubator. • 4. […] Data analysis was performed using XLfit 5.5.0.5.

[2] = target: EGFR (A767_dupASV) expressing Ba/F3 stable cell line (Homo sapiens, UniProt P00533, DUP767-769, cells depend on it); assay: Cellular proliferation (Alamar Blue) assay, EGFR A767_dupASV Ba/F3; settings: 72 hr, read-out: A767 IC50
Experimental: as §1

A431 cells = assay: Cellular proliferation (Alamar Blue) assay, A431
Experimental: as §1

[3] = Homo sapiens, A-431; A431 cells, Alamar Blue, 72 hr; read-out: A431 IC50
[4] = Homo sapiens, A-431; A431 cells, 72 hr, Alamar Blue; read-out: A431 IC50

EGFR(D770_N771insSVD) expressing Ba/F3 stable cell line, sequence (P00533 with tags, fused parts or gaps DUP768-770): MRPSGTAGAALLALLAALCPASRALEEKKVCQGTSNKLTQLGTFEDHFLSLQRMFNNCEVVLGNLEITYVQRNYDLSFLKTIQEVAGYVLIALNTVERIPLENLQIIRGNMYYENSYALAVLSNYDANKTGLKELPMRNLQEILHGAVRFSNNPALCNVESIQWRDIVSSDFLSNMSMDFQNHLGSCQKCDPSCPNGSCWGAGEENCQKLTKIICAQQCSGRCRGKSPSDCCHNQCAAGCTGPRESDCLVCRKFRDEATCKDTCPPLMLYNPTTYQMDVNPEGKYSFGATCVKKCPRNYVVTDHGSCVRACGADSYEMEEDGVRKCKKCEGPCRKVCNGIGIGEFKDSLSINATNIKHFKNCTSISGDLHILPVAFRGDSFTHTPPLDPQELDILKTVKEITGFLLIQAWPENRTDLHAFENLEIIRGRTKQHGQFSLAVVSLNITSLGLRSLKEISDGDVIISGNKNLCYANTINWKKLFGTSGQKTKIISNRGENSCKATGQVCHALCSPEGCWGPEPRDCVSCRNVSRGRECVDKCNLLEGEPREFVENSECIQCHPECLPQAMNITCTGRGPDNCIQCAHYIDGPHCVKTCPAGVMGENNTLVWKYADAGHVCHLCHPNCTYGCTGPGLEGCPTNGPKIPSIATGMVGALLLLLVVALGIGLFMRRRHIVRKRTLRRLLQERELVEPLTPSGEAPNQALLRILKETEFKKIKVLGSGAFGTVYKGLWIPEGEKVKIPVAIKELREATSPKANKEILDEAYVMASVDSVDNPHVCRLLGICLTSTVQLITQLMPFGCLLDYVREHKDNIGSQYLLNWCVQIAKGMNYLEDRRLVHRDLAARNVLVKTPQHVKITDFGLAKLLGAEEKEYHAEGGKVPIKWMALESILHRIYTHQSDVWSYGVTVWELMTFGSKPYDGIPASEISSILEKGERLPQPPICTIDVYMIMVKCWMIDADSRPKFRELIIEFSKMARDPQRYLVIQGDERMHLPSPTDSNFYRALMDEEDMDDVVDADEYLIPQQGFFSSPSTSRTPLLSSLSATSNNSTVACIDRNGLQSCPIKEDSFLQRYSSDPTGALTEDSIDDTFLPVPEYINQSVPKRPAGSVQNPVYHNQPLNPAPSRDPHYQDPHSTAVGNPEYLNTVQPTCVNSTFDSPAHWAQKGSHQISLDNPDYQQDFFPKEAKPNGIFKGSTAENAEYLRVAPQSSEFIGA
EGFR (A767_dupASV) expressing Ba/F3 stable cell line, sequence (P00533 with tags, fused parts or gaps DUP767-769): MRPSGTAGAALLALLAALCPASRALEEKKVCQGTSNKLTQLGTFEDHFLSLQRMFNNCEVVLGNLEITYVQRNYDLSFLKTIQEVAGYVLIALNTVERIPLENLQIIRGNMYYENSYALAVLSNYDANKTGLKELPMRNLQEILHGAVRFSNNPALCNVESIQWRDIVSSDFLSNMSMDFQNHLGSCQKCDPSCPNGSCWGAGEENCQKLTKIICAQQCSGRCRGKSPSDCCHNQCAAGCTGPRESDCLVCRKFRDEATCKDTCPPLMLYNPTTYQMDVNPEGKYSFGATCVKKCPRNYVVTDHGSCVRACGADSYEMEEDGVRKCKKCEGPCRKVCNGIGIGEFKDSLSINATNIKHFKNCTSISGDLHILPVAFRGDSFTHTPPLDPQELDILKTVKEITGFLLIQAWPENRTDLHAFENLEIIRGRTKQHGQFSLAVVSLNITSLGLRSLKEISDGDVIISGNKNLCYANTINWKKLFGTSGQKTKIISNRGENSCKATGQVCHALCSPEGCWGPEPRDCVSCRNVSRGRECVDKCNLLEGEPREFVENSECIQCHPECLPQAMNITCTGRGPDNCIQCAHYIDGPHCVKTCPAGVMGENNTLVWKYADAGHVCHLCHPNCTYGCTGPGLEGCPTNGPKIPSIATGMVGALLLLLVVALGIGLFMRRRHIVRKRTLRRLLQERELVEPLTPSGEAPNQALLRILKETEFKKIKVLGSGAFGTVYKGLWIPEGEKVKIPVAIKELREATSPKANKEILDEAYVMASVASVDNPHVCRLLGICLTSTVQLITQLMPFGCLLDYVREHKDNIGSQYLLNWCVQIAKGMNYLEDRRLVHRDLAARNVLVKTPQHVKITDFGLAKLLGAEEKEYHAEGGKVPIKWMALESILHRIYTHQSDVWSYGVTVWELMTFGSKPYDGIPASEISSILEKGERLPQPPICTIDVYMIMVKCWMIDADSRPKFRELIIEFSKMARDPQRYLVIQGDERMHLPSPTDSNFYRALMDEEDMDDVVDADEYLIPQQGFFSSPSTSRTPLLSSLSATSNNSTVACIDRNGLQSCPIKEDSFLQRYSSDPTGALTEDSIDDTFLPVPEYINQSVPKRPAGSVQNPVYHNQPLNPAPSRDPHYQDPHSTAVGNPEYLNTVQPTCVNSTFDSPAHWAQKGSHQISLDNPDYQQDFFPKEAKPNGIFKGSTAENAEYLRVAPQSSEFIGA

SMILES	GI50 [1] [µM]	GI50 [2] [µM]	IC50 (A431 cells; [3]) [µM]	IC50 (A431 cells; [4]) [µM]
C=CC(=O)Nc1ccc(F)c(Nc2nc(Nc3ccc(=O)[nH]c3)ncc2Cl)c1 [Compound 2, N-(3-((5-chloro-2-((6-oxo-1,6-dihydropyridin-3-yl)amino)pyrimidin-4-yl)amino)-4-fluorophenyl)acrylamide]	9.24	> 10	> 10	
C=CC(=O)Nc1ccc(F)c(Nc2nc(-n3ccc(N)cc3=O)ncc2Cl)c1 [Compound 3, N-(3-((2-(4-amino-2-oxopyridin-1(2H)-yl)-5-chloropyrimidin-4-yl)amino)-4-fluorophenyl)acrylamide]	> 10	> 10	> 10	
CN(C)C/C=C/C(=O)Nc1ccc(F)c(Nc2nc(Nc3cnn(C)c3)ncc2Cl)c1 [Compound 4, (E)-N-(3-((5-chloro-2-((1-methyl-1H-pyrazol-4-yl)amino)pyrimidin-4-yl)amino)-4-fluorophenyl)-4-(dimethylamino)but-2-enamide]	3	1.76	6.59	
C=CC(=O)Nc1ccc(Nc2nc(Nc3cnn(C)c3)ncc2Cl)c(F)c1 [Compound 10, N-(4-((5-chloro-2-((1-methyl-1H-pyrazol-4-yl)amino)pyrimidin-4-yl)amino)-3-fluorophenyl)acrylamide]	> 10	> 10	3.01	
C=CC(=O)Nc1ccc(F)c(N(c2ccccc2)c2nc(Nc3cnn(C)c3)ncc2Cl)c1 [Compound 20, N-(3-((5-chloro-2-((1-methyl-1H-pyrazol-4-yl)amino)pyrimidin-4-yl)(phenyl)amino)-4-fluorophenyl)acrylamide]	2.41		> 10	
C=CC(=O)Nc1ccc(F)c(Nc2nc(Nc3cc(COC)n(C)n3)ncc2Cl)c1 [Compound 21, N-(3-((5-chloro-2-((5-(methoxymethyl)-1-methyl-1H-pyrazol-3-yl)amino)pyrimidin-4-yl)amino)-4-fluorophenyl)acrylamide]	4.76		> 10	
Cc1cc(Nc2ncc(Cl)c(Nc3cc(NC(=O)/C=C/CN(C)C)ccc3F)n2)sn1 [Compound 27, (E)-N-(3-((5-chloro-2-((3-methylisothiazol-5-yl)amino)pyrimidin-4-yl)amino)-4-fluorophenyl)-4-(dimethylamino)but-2-enamide]	2.62	1.99	> 10	
C=CC(=O)Nc1ccc(F)c(Nc2nc(Nc3cccnc3F)ncc2-c2ccc(C(F)(F)F)cc2)c1 [Compound 38, N-(4-fluoro-3-((2-((2-fluoropyridin-3-yl)amino)-5-(4-(trifluoromethyl)phenyl)pyrimidin-4-yl)amino)phenyl)acrylamide]	0.36	0.947	1.36	
C=CC(=O)Nc1ccc(F)c(Nc2nc(Nc3ccccc3OC)ncc2-c2ccc(C(F)(F)F)cc2)c1 [Compound 39, N-(4-fluoro-3-((2-((2-methoxyphenyl)amino)-5-(4-(trifluoromethyl)phenyl)pyrimidin-4-yl)amino)phenyl)acrylamide trifluoroacetate]	3.04	8.29	2.93	
C=CC(=O)Nc1ccc(F)c(Nc2nc(Nc3ccccc3Cl)ncc2-c2ccc(C(F)(F)F)cc2)c1 [Compound 40, N-(3-((2-((2-chlorophenyl)amino)-5-(4-(trifluoromethyl)phenyl)pyrimidin-4-yl)amino)-4-fluorophenyl)acrylamide trifluoroacetate]	> 10	> 10	3.83	
C=CC(=O)Nc1ccc(F)c(Nc2nc(Nc3csc(Cl)c3)ncc2-c2ccc(C(F)(F)F)cc2)c1 [Compound 41, N-(3-((2-((5-chlorothiophen-3-yl)amino)-5-(4-(trifluoromethyl)phenyl)pyrimidin-4-yl)amino)-4-fluorophenyl)acrylamide trifluoroacetate]	1.66	> 10	7.33	
C=CC(=O)Nc1ccc(F)c(Nc2nc(NC3CCN(C)CC3)ncc2-c2ccc(C(F)(F)F)cc2)c1 [Compound 42, N-(4-fluoro-3-((2-((1-methylpiperidin-4-yl)amino)-5-(4-(trifluoromethyl)phenyl)pyrimidin-4-yl)amino)phenyl)acrylamide trifluoroacetate]	> 10	> 10	8.99	
C=CC(=O)Nc1ccc(F)c(Nc2nc(NCCN(C)C)ncc2-c2ccc(C(F)(F)F)cc2)c1 [Compound 43, N-(3-((2-((2-(dimethylamino)ethyl)amino)-5-(4-(trifluoromethyl)phenyl)pyrimidin-4-yl)amino)-4-fluorophenyl)acrylamide trifluoroacetate]	> 10	> 10	3.67	
C=CC(=O)Nc1ccc(F)c(Nc2nc(Nc3ccc(N(C)C)cc3)ncc2-c2ccc(C(F)(F)F)cc2)c1 [Compound 44, N-(3-((2-((4-(dimethylamino)phenyl)amino)-5-(4-(trifluoromethyl)phenyl)pyrimidin-4-yl)amino)-4-fluorophenyl)acrylamide trifluoroacetate]	> 10	> 10	0.484	
C=CC(=O)Nc1ccc(F)c(Nc2nc(Nc3ccsc3)ncc2-c2ccc(C(F)(F)F)cc2)c1 [Compound 46, N-(4-fluoro-3-((2-(thiophen-3-ylamino)-5-(4-(trifluoromethyl)phenyl)pyrimidin-4-yl)amino)phenyl)acrylamide trifluoroacetate]	0.973	2.74	0.523	
C=CC(=O)Nc1ccc(F)c(Nc2nc(Nc3cnn(C)c3)ncc2C(=O)N(C)c2ccccc2)c1 [Compound 49, 4-((5-acrylamido-2-fluorophenyl)amino)-N-methyl-2-((1-methyl-1H-pyrazol-4-yl)amino)-N-phenylpyrimidine-5-carboxamide]	8.62	3.29	> 10	
C=CC(=O)Nc1ccc(F)c(Nc2nc(Nc3cnn(C)c3)ncc2-c2ccc(NC(C)=O)cc2)c1 [Compound 58, N-(3-((5-(4-acetamidophenyl)-2-((1-methyl-1H-pyrazol-4-yl)amino)pyrimidin-4-yl)amino)-4-fluorophenyl)acrylamide]	2.89	2.66	> 10	
C=CC(=O)Nc1ccc(F)c(Nc2nc(Nc3cnn(C)c3)ncc2-c2ccc(C(=O)NC)cc2)c1 [Compound 64, 4-(4-((5-acrylamido-2-fluorophenyl)amino)-2-((1-methyl-1H-pyrazol-4-yl)amino)pyrimidin-5-yl)-N-methylbenzamide]	7.87	3	> 10	
C=CC(=O)Nc1ccc(F)c(Nc2nc(Nc3cnn(C)c3)ncc2-c2ccccc2C(F)(F)F)c1 [Compound 65, N-(4-fluoro-3-((2-((1-methyl-1H-pyrazol-4-yl)amino)-5-(2-(trifluoromethyl)phenyl)pyrimidin-4-yl)amino)phenyl)acrylamide]	1	2.74	1.94	
C=CC(=O)Nc1ccc(F)c(Nc2nc(Nc3cnn(C)c3)ncc2-c2ccnc(C)c2)c1 [Compound 80, N-(4-fluoro-3-((2-((1-methyl-1H-pyrazol-4-yl)amino)-5-(2-methylpyridin-4-yl)pyrimidin-4-yl)amino)phenyl)acrylamide]	0.256	0.751	0.082	
C=CC(=O)Nc1cccc2c1ccn2-c1nc(Nc2cnn(C)c2)ncc1-c1ccc(C(F)(F)F)cc1 [Compound 81, N-(1-(2-((1-methyl-1H-pyrazol-4-yl)amino)-5-(4-(trifluoromethyl)phenyl)pyrimidin-4-yl)-1H-indol-4-yl)acrylamide]	> 10	> 10		
C=CC(=O)Nc1ccc(F)c(Nc2nc(Nc3cnn(C)c3)ncc2-c2cn[nH]c2)c1 [Compound 98, N-(4-fluoro-3-((2-((1-methyl-1H-pyrazol-4-yl)amino)-5-(1H-pyrazol-4-yl)pyrimidin-4-yl)amino)phenyl)acrylamide]	0.671	0.942	> 10	
C=CC(=O)Nc1ccc(F)c(Nc2nc(Nc3cnn(C)c3)ncc2-c2ccc(N(C)C)nc2)c1 [Compound 107, N-(3-((5-(6-(dimethylamino)pyridin-3-yl)-2-((1-methyl-1H-pyrazol-4-yl)amino)pyrimidin-4-yl)amino)-4-fluorophenyl)acrylamide]	> 10	> 10		
C=CC(=O)Nc1ccc(F)c(Nc2nc(Nc3cnn(C)c3)ncc2-c2ccccc2-c2ccccc2)c1 [Compound 263, N-(3-((5-([1,1′-biphenyl]-2-yl)-2-((1-methyl-1H-pyrazol-4-yl)amino)pyrimidin-4-yl)amino)-4-fluorophenyl)acrylamide]				6.23
C=CC(=O)Nc1ccc(F)c(Nc2nc(Nc3cnn(C)c3)ncc2-c2cccc3cc[nH]c23)c1 [Compound 265, N-(3-((5-(1H-indol-7-yl)-2-((1-methyl-1H-pyrazol-4-yl)amino)pyrimidin-4-yl)amino)-4-fluorophenyl)acrylamide]				4.89
